The source of these data is paper PMC4842970, “Bioactivity Focus of α-Cyano-4-hydroxycinnamic acid (CHCA) Leads to Effective Multifunctional Aldose Reductase Inhibitors” (Scientific Reports, 2016).

Data set [1] can be described thus: ORACFL radical absorbance capacity assay. The text has this: With the CHCA scaffold, we hypothesized that 5a–j should have antioxidant activity. Therefore, a radical absorbance capacity assay (ORACFL)[41] was employed to assess their capacities. This method is based on the inhibition of peroxyl-radical-induced oxidation initiated by thermal decomposition of azo-compounds, in this case 2,2′-azo-bis (2-amidinopropane) dihydrochloride (AAPH). Trolox (6-hydroxy-2,5,7,8-tetramethylchroman-2-carboxylic acid) was used as a standard reference. Data is expressed as micromoles of Trolox equivalents (TE) per […] of sample (μmol TE/ml or U/ml).
Antioxidant capacity was determined according to the procedure described previously.

Data set [2] in a line: Stability in DMEM containing 5% FBS (RP-HPLC). Type of data set: in vitro ADME. The settings on record: 37 °C, 12 h incubation. Here is the method:
Predicted from its structure, the stability of 5f will be good and the toxicity will be low. […] After 12 h incubation, 86% of 5f remained intact.
The sample was incubated in high-glucose Dulbecco’s modified Eagle’s medium (DMEM) containing 5% fetal calf serum (FBS) for a period of 48 h. Analyses were scheduled at 0.5, 1.0, 4.0, 8.0, 12.0, 24.0, and 48.0 h. Reverse-phase high performance liquid chromatography (RP-HPLC) was performed on a Cosmosil column (C18, […], 4.6 × 250 mm) using an LC-100 fluid unit (Shanghai Wufeng Inc., China) with a tunable LC-100 UV detector. The eluent was various percentages of methanol containing pure water (flow rate: 1.0 ml/min; λ: 254 nm). The experiments were repeated at least 3 times and compared with the control experiment. The results were shown in Supporting Infromation.

In a further data set the test system is ALR2. As to the kind of experiment: AR (ALR2) activity in glucose-treated embryos (chicken AR ELISA kit). Type of data set: in vivo. The note with it: glucose-treated chick embryos, EDD 5, dose 1 μM. The procedure:
As expected, treatment of 5f decreased ALR2 activity in a dose-dependent manner. […] However, EDA, which is a clinical radical scavenger, was shown no effect on the inhibition of ALR2.
Embryos on EDD 5 were homogenized with chicken saline and centrifuged (4 °C, 10000 rpm, 10 min). The supernatant was used for measuring AR activity in the sample. A chicken AR ELISA kit (Jianglai Biotechnology, China) were used for detection. The concentration of AR in the samples was then determined by comparing the OD of the samples to the standard curve. The sorbitol contents of the chick embryo were determined by a Sorbitol Colorimetric Assay Kit (BioVision, USA). In the assay, sorbitol is oxidized to fructose with the proportional development of intense color with an absorbance maximum at 560 nm.
For orientation: In an ELISA, binding on a coated surface is turned into a signal by an enzyme label.

A further data set concerns the target T1, ALR1 (Gallus gallus, UniProt Q5ZK84).
T1 construct: Embryos on EDD 5 were homogenized with chicken saline and centrifuged; from tissue; host or cells: EDD 5 chick (leghorn) embryo homogenate supernatant
T1 sequence (Q5ZK84 1-327): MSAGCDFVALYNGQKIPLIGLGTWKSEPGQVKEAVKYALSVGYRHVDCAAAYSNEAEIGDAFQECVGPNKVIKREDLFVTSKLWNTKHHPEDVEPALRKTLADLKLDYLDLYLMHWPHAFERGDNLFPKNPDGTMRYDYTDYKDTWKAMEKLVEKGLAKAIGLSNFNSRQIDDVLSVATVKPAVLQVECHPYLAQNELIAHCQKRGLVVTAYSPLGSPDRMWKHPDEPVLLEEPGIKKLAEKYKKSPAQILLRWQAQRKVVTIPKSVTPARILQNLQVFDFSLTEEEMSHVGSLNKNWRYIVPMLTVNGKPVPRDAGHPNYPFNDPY
Nature of the data set: ALR1 activity in glucose-treated embryos (chicken ALR1 ELISA kit). The settings on record: glucose-treated chick embryos, EDD 5, compared with the model group. Type of data set: in vivo. Here is the method:
Embryos on EDD 5 were homogenized with chicken saline and centrifuged (4 °C, 10000 rpm, 10 min). The supernatant was used for measuring ALR1 activity in the sample. A chicken ALR1 ELISA kit (Jianglai Biotechnology, China) were used for detection. The concentration of ALR1 in the samples was then determined by comparing the OD of the samples to the standard curve.

A further data set relates to Pax3. As to the kind of experiment: Pax3 protein expression in chick embryos (Western blotting). Type of data set: in vivo. The note with it: glucose-treated chick embryos, EDD 5. Here is the method: Figure 4 5f restored neural tube development and marker expression in chick embryos on EDD 5. Glucose concentration (A) and Pax3 protein expression (B) were determined in chick embryos. The plasma glucose concentration was measured using a glucose oxidase-coupled spectrophotometric assay kit. Proteins were detected using the monoclonal antibody anti-Pax3 diluted 1:1000 (DSHB, USA) and visualized using anti-mouse IgG conjugated with horseradish peroxidase (HRP) and Pierce ECL Western Blotting Substrate (Thermo Fisher Scientific, USA) as the substrate of HRP. […] Values were expressed as mean ± SD in each group (n = 10). *P < 0.05, **P < 0.01 vs. control. ^#P < 0.05, ^##P < 0.01 vs. glucose.
The eyes of EDD 5 chick embryos were separated and lysed in lysis buffer (Beyotime Institute of Biotechnology, China) on ice for 10 min. After centrifugation of the cell suspension at 12000 rpm for 15 min, the protein content of the supernatant was determined with a Pierce BCA protein assay kit (Thermo Fisher Scientific, USA) to ensure equal sample loading. […] Proteins were detected using the monoclonal antibody anti-Pax3 diluted 1:1000 (DSHB, USA) and visualized using anti-mouse IgG conjugated with horseradish peroxidase (HRP) and Pierce ECL Western Blotting Substrate (Thermo Fisher Scientific, USA) as the substrate of HRP.
(In general: A western blot detects proteins with antibodies after separation by electrophoresis.)

Regarding `CC(=O)N[C@H](COCc1ccccc1)C(=O)NCCCNC(=O)/C(C#N)=C/c1ccc(O)cc1` [Compound 5f, (R,E) - N - (3-(2-acetamido-3-(benzyloxy)propanamido)propyl)-2-cyano-3-(4-hydroxyphenyl)acrylamide], the ORAC stood at 68.1 ± 2.3 U/ml in data set [1] (3.125 μg/ml), 66.5 ± 1.6 U/ml in data set [1] (6.25 μg/ml) and 65.7 ± 5.1 U/ml in data set [1] (12.5 μg/ml). This molecule also gave an ORAC value in data set [1] (concentration of 3.125 μM) of 65.7 U/ml. Moreover, the remained intact in data set [2] was determined as 86%. In addition, in the data set on ALR2, the “ALR2 activity in embryo” value is “close to that of the control”. Further, the “ALR1 level in embryo” value on ALR1 was “no obvious change”. Besides, the Pax3 expression entry with Pax3 is “restored”.
